The values below come from patent US6121278A, “Di-n-heterocyclic compounds, methods, and compositions for inhibiting parp activity” (Guilford Pharmaceuticals, Inc., priority 1998, dated 2000).

One series deals with septic shock mortality. The series is described as follows: Septic shock assay (LPS plus galactosamine). In kind it is in vivo, C57/BL male mice. Conditions: 60, 20, 6 and 2 mg/kg daily IP for three days; LPS plus galactosamine challenge. The protocol: Groups of 10 C57/BL male mice weighing 18 to 20 g were administered a test compound, 1-carboxynaphthalene-1-carboxamide at the doses of 60, 20, 6 and 2 mg/kg, daily, by intraperitoneal (IP) injection for three consecutive days. Each animal was first challenged with lipopolysaccharide (LPS, from E. coli, LD100 of […] IV) plus galactosamine (20 mg/animal IV). The first dose of test compound in a suitable vehicle was given 30 minutes after challenge, and the second and third doses were given 24 hours later on day 2 and day 3 respectively, with only the surviving animals receiving the second or third dose of the test compound. Mortality was recorded every 12 hours after challenge for the three-day testing period. 1-Carboxy-naphthalene-1-carboxamide provided a protection against mortality from septic shock of about 40%.

For the next series, the system named is endotoxic shock. Conditions: in vivo; cited from earlier work.
For series [1] the following is noted: dose of acetanilid given to a person; cited from earlier work.
The test system of the next series is PARP. The note with it: cited from earlier work.
The subject of the next series is tumor cells. Conditions: cited from earlier work.
A further series deals with colitis. Conditions: rat, in vivo; cited from earlier work.
The subject of series [2] is human fibroblast cells (W138 or BJ). The series is described as follows: Extending proliferative capacity and lifespan of cells. In kind it is cell-based. The protocol:
At the time of subdivision, the media is aspirated, and the cells rinsed with phosphate buffer saline (PBS) and then trypsinized. The cells are counted with a Coulter counter and plated at a density of 10^5 cells per cm^2 in 6-well tissue culture plates in DMEM/199 medium supplemented with 10% bovine calf serum and varying amounts (0.10 μM, and 1 mM: from a 100× stock solution in DMEM/M199 medium) of a PARP inhibitor of Formula I as disclosed herein. This process is repeated every 7 days until the cell appear to stop dividing. The untreated (control) cells reach senescence and stop dividing after about 40 days in culture. […] The cells treated with 1 mM 3-AB will still divide after 60 days in culture.

Series [3] has as its system heart ischemia and reperfusion. The note with it: cited from earlier work.
Series [4] has as its system cell viability, glucose metabolism, and DNA synthesis. The note with it: cited from earlier work.
A short description of series [5]: Arterial blood gases, pH and MABP in focal cerebral ischemia rats. In kind it is in vivo, male Long-Evans rats. The note with it: for MABP Ischemia: during occlusion; for MABP Steady State: just prior to occlusion. On the procedure: (§1) Focal cerebral ischemia was produced by cauterization of the right distal MCA (middle cerebral artery) with bilateral temporary common carotid artery occlusion in male Long-Evans rats for 90 minutes. All procedures performed on the animals were approved by the University Institutional Animal Care and Use Committee of the University of Pennsylvania. A total of 42 rats (weights: 230-340 g) obtained from Charles River were used in this study. The animals fasted overnight with free access to water prior to the surgical procedure.
(§2) Two hours prior to MCA occlusion, varying amounts (control, n=14; 5 mg/kg, n=7; 10 mg/kg, n=7; 20 mg/kg, n=7; and 40 mg/kg, n=7) of the compound, 3,4-dihydro-5-[4-(1-piperidinyl)-butoxy]-1(2H)-isoquinolinone ("DPQ") were dissolved in dimethyl sulfoxide (DMSO) using a sonicator. A volume of 1.28 ml/kg of the resulting solution was injected intraperitoneally into fourteen rats.
(§3) The rats were then anesthetized with halothane (4% for induction and 0.8%-1.2% for the surgical procedure) in a mixture of 70% nitrous oxide and 30% oxygen. The body temperature was monitored by a rectal probe and maintained at 37.5±0.5° C. with a heating blanket regulated by a homeothermic blanket control unit (Harvard Apparatus Limited, Kent, U.K.). A catheter (PE-50) was placed into the tail artery, and arterial pressure was continuously monitored and recorded on a Grass polygraph recorder (Model 7D, Grass Instruments, Quincy, Mass.). Samples for blood gas analysis (arterial pH, PaO2 and PaCO2) were also taken from the tail artery catheter and measured with a blood gas analyzer (ABL 30, Radiometer, Copenhagen, Denmark). Arterial blood samples were obtained 30 minutes after MCA occlusion.
A "steady state" MABP was taken following completion of the surgical reparation, just prior to occlusion; an "ischemia" MABP was taken as the average MABP during occlusion.

The test system of the next series is focal cerebral ischemia. As to the kind of experiment: Focal cerebral ischemia (distal MCA cauterization with bilateral temporary CCA occlusion), infarct. The note with it: for cross-sectional infarct area curve (in words): FIG. 1. In kind it is in vivo, male Long-Evans rats. On the procedure: as §1, §2, §3
The head of the animal was positioned in a stereotaxic frame, and a right parietal incision between the right lateral canthus and the external auditory meatus was made. Using a dental drill constantly cooled with saline, a 3 mm burr hole was prepared over the cortex supplied by the right MCA, 4 mm lateral to the sagittal suture and 5 mm caudal to the coronal suture. The dura mater and a thin inner bone layer were kept, care being taken to position the probe over a tissue area devoid of large blood vessels. The flow probe (tip diameter of 1 mm, fiber separation of 0.25 mm) was lowered to the bottom of the cranial burr hole using a micromanipulator. The probe was held stationary by a probe holder secured to the skull with dental cement. The microvascular blood flow in the right parietal cortex was continuously monitored with a laser Doppler flowmeter (FloLab, Moor, Devon, U.K., and Periflux 4001, Perimed, Stockholm, Sweden).
Focal cerebral ischemia was produced by cauterization of the distal portion of the right MCA with bilateral temporary common carotid artery (CCA) occlusion by the procedure of Chen et al., "A Model of Focal Ischemic Stroke in the Rat: Reproducible Extensive Cortical Infarction", Stroke 17:738-43 (1986) and/or Liu et al., "Polyethylene Glycol-conjugated Superoxide Dismutase and Catalase Reduce Ischemic Brain Injury", Am. J. Physiol. 256:H589-93 (1989), both of which are hereby incorporated by reference.
Specifically, bilateral CCA's were isolated, and loops made from polyethylene (PE-10) catheter were carefully passed around the CCA's for later remote occlusion. […]

The target in series [6] is T1, purified recombinant human PARP (Homo sapiens, UniProt P09874).
T1 construct: purchased Trevigen (Gaithersburg, Md.)
T1 sequence (P09874 whole entry): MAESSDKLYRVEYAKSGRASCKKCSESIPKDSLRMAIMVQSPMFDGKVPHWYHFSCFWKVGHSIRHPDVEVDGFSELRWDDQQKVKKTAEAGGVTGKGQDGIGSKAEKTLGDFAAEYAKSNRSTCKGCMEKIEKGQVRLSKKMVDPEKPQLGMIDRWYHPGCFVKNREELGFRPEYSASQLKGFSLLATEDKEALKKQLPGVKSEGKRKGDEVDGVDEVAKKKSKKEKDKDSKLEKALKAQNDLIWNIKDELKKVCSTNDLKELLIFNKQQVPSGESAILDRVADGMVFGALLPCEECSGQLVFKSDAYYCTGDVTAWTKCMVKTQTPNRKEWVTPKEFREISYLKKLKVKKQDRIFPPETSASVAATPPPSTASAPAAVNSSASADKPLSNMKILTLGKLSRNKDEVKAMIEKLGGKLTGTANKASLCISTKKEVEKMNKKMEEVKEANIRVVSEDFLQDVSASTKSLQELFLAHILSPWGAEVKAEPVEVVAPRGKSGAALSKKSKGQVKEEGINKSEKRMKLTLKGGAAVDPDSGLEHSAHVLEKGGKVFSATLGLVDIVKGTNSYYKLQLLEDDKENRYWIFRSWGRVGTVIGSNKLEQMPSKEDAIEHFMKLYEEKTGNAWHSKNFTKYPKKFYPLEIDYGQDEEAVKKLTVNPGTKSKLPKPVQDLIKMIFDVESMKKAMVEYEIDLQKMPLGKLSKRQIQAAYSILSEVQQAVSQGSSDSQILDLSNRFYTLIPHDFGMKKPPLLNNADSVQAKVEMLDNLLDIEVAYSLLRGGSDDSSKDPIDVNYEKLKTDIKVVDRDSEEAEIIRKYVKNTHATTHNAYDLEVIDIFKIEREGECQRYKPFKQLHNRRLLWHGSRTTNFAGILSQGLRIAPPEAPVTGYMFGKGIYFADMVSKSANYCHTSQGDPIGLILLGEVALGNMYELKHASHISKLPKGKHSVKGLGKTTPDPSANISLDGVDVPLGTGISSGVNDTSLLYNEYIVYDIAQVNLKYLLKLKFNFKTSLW
As to the kind of experiment: PARP enzyme assay, [3H]NAD incorporation. In kind it is biochemical. Conditions: 25° C., 15 minutes; PARP inhibition; read-out: Approximate IC50's.
Protocol: The reaction was initiated by incubating the mixture at 25° C. After 15 minutes' incubation, the reaction was terminated by adding 500 microliters of ice cold 20% (w/v) trichloroacetic acid. The precipitate formed was transferred onto a glass fiber filter (Packard Unifilter-GF/B) and washed three times with ethanol. After the filter was dried, the radioactivity was determined by scintillation counting.

“Also recorded” adds a separate entry of the source.

In the case of 1-carboxynaphthalene-1-carboxamide, the “protection against mortality from septic shock” value in the series with septic shock mortality is reported as “about 40%”.

Turning to `NC(=O)c1cccnc1` [nicotinamide], the “vascular failure in endotoxic shock (in words)” value in the series with endotoxic shock is “protects against delayed, NO-mediated vascular failure in endotoxic shock”.

In the case of `CC(=O)Nc1ccccc1` [acetanilid, acetanilide], in series [1], the “plasma component / peak (in words)” value is given as “During the first hour, acetanilid is the principal plasma component”.

For the molecule `O=c1[nH]c2ccccc2c2ccccc12` [6(5H)-Phenanthridinone], in the series on PARP, the “PARP activity (in words)” value is given as “inhibition of PARP activity”. The “proliferation of tumor cells (in words)” value in the series with tumor cells is on record as “reduced proliferation of tumor cells”. Further, the “synergy with an alkylating drug (in words)” value in the series on tumor cells (co-treatment with an alkylating drug) is recorded as “a marked synergistic effect when tumor cells are co-treated with an alkylating drug”.

On to `CC(=O)Nc1ccc(O)cc1` [acetaminophen, p-hydroxyacetanilid], for which the “plasma component / peak (in words)” value in series [1] is given as “In the second hour, as the acetanilid level falls, the metabolite acetaminophen concentration reaches a peak”.

Turning to `NC(=O)c1cccc(N)c1` [3-aminobenzamide], the “colitis outcome (in words)” value with colitis is “reduced the inflammatory response and restored the morphology and the energetic status of the distal colon”. Also, the “effect on lifespan of cells (in words)” value in series [2] (10 μM) was “little or no effect”; in series [2] (100 μM) it was “appears lengthen the lifespan of the cells”. In [2] (1 mM), the “effect on lifespan and proliferative capacity of cells (in words)” value was “dramatically increases the lifespan and proliferative capacity of the cells”. The “time in culture after which cells still divide” value in [2] (1 mM, untreated cells stop after about 40 days) is on record as over 60 days. Also, the “reduction in infarct size in the heart” value in series [3] (10 mg/kg single injection, one minute before occlusion or reperfusion) is 32-42%. Besides, in series [4], the “effect on cell viability, glucose metabolism, and DNA synthesis (in words)” value is “shown to affect cell viability, glucose metabolism, and DNA synthesis”.

In the case of `O=C1NCCc2c(OCCCCN3CCCCC3)cccc21` [DPQ, 3,4-dihydro-5-[4-(1-piperidinyl)-butoxy]-1(2H)-isoquinolinone], the PaCO2 was found to be 38.0 ± 2.8 mm Hg in [5] (5 mg/kg-treated group (n = 7)), 39.3 ± 5.2 mm Hg in series [5] (10 mg/kg-treated group (n = 7)), 41.3 ± 2.8 mm Hg in [5] (20 mg/kg-treated group (n = 7)) and 39.5 ± 4.7 mm Hg in series [5] (40 mg/kg-treated group (n = 7)). The PaO2 in series [5] (5 mg/kg-treated group (n = 7)) stood at 126 ± 20 mm Hg; in series [5] (10 mg/kg-treated group (n = 7)), 125 ± 16 mm Hg; in series [5] (20 mg/kg-treated group (n = 7)), 122 ± 14 mm Hg; in series [5] (40 mg/kg-treated group (n = 7)), 137 ± 17 mm Hg. Also, the “arterial pH” value was determined as 7.36 ± 0.02 in [5] (5 mg/kg-treated group (n = 7)), 7.34 ± 0.03 in series [5] (10 mg/kg-treated group (n = 7)), 7.35 ± 0.23 in series [5] (20 mg/kg-treated group (n = 7)) and 7.33 ± 0.24 in series [5] (40 mg/kg-treated group (n = 7)). For the same molecule, the “MABP Ischemia” value in series [5] (5 mg/kg-treated group (n = 7), ** p < 0.01 vs steady state) is reported as 91 mm Hg; in [5] (10 mg/kg-treated group (n = 7), * p < 0.05 vs steady state), 90 mm Hg; in [5] (20 mg/kg-treated group (n = 7), ** p < 0.01 vs steady state) it was 91 mm Hg; in series [5] (40 mg/kg-treated group (n = 7), * p < 0.05 vs steady state), 88 mm Hg. Besides, the “MABP Steady State” value in series [5] (5 mg/kg-treated group (n = 7)) is 78 ± 5 mm Hg; in series [5] (10 mg/kg-treated group (n = 7)), 80 ± 9 mm Hg; in series [5] (20 mg/kg-treated group (n = 7)), 79 ± 10 mm Hg; in series [5] (40 mg/kg-treated group (n = 7)), 78 ± 4 mm Hg. The “cross-sectional infarct area curve (in words)” value with focal cerebral ischemia (5 mg/kg i.p.) was “fell approximately halfway between the control and the 10 mg/kg curves”; in the series with focal cerebral ischemia (20 mg/kg i.p.) it was “fell approximately halfway between the control and the 10 mg/kg curves”; in the series with focal cerebral ischemia (40 mg/kg i.p.), “close to the control”. The “infarct volume versus control (in words)” value with focal cerebral ischemia (40 mg/kg i.p.) is “no significant difference between the control and the 40 mg/kg-treated group; also recorded: less neuroprotective”. In addition, the “reduction in infarct volume overall (in words)” value in the series with focal cerebral ischemia (overall, in vivo administration) is on record as “substantial reduction in infarct volume”.

On to `Oc1cccc2c(O)nccc12` [1,5-dihydroxyisoquinoline], for which, in series [3] (1 mg/kg single injection), the “reduction in infarct size” value is given as 38-48%.

For `NC(=O)c1ccccc1` [benzamide], the “effect on cell viability, glucose metabolism, and DNA synthesis (in words)” value in series [4] is “shown to affect cell viability, glucose metabolism, and DNA synthesis”.

In the case of `Nc1ccc2c(c1)oc(=O)c1ccccc12` [PARP Inhibitor (line 8)], the IC50 in series [6] was about 4 µM.
